Test results from patent publication US9475817B2 (BRISTOL-MYERS SQUIBB COMPANY, priority 2012, dated 2016).

Tests used:
CK1ε = CK1ε (Homo sapiens (Human), UniProt P49674); experiment: CK1ε kinase assay (Caliper LabChip, fluoresceinated peptide substrate); type: biochemical; details: 200 pM CK1ε, 50 μM ATP, 1.5 μM peptide substrate, 22 hours room temperature
Method: (§1) CK1ε and CK1δ Kinase Assays
(§2) The kinase assay was performed in V-bottom 384-well plates. […] The reaction was incubated at room temperature for 22 hours and terminated by adding 45 μl of 35 mM EDTA to each sample. […] Compounds were dissolved at 10 mM in dimethylsulfoxide (DMSO) and evaluated at eleven concentrations. IC50 values were derived by non-linear regression analysis.

CK1δ = CK1δ (Homo sapiens (Human), UniProt P48730); experiment: CK1δ kinase assay (Caliper LabChip, fluoresceinated peptide substrate); type: biochemical; details: 200 pM CK1δ, 50 μM ATP, 1.5 μM peptide substrate, 22 hours room temperature
Method: as §1, §2

CK1ε, sequence (P49674 whole entry): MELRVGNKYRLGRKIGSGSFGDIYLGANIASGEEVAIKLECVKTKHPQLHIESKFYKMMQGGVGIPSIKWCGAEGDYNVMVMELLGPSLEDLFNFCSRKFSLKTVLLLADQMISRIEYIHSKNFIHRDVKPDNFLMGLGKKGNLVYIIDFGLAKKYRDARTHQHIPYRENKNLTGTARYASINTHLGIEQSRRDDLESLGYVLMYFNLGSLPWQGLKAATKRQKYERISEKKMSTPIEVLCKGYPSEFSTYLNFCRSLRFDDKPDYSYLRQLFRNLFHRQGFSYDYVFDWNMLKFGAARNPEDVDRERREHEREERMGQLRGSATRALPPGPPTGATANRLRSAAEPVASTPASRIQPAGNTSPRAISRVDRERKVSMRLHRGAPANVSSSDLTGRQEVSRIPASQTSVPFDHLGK
CK1δ, sequence (P48730 whole entry): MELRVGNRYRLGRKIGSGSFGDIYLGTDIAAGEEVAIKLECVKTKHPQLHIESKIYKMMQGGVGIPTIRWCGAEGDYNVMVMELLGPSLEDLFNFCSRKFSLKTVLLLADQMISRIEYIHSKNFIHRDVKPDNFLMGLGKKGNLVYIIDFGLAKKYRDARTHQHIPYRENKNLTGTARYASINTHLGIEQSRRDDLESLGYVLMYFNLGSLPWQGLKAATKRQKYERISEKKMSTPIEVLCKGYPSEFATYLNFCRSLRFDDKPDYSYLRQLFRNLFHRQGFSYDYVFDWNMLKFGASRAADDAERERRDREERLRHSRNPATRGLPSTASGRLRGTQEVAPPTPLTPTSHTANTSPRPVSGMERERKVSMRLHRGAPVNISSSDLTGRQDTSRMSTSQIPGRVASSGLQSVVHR

`Cn1cc(-c2ccc3nc(NC(=O)c4ccccn4)cn3n2)c(-c2ccc(F)cc2)n1` [Compound 96, N-(6-(3-(4-fluorophenyl)-1-methyl-1H-pyrazol-4-yl)imidazo[1,2-b]pyridazin-2-yl)picolinamide] gave an IC50 (CK1ε) of 42 nM and an IC50 (CK1δ) of 11.8 nM.
